Drawing on patent publication US7932246B2, “Histone deacetylase inhibitors” (Chroma Therapeutics Ltd., priority 2005, dated 2011), this text covers IC50 for 19 compounds.

A word on the IC50: it is the concentration that inhibits the measured activity by half. A lower IC50 goes with inhibition by little substance.

For assay [1], the system named is U937. As to the kind of experiment: U937 cell inhibition assay (WST-1 cell viability). The class given is cell-based. The settings on record: Homo sapiens, U-937; U937 cells, 72-96 h, WST-1 assay, IC50 range. The procedure, abridged:
(§1)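 Cells seeded at 1000-2000/well, grown 24 h, then treated for 72-96 h with 8 concentrations (top 10 μM, 3-fold, 6 replicates). Viability by WST-1; inhibition relative to DMSO, IC50 by sigmoidal variable-slope fit.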
For orientation: Tetrazolium assays rely on reduction of a dye to a coloured formazan, in cell work by metabolically active cells.

The target in assay [2] is histone deacetylase activity (HeLa nuclear extract). As to the kind of experiment: HDAC fluorescent activity assay (Biomol, Fluor de Lys substrate). The class given is biochemical. The settings on record: IC50 range. An outline of the steps:
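HeLa nuclear extract served as the deacetylase source for the acetyl-lysine Fluor de Lys substrate, with or without inhibitor. Developer converts deacetylated substrate to a fluorophore.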

Assay [3] has as its system HUT. The assay can be described thus: HUT cell inhibition assay (WST-1 cell viability). The class given is cell-based. The settings on record: HUT cells, 72-96 h, WST-1 assay, IC50 range. The procedure, abridged:
as §1

Assay [4] concerns HeLa cells. As to the kind of experiment: HeLa cell inhibition assay (SRB cell viability). Format: cell-based. Particulars: Homo sapiens, HeLa, 72 h, IC50 range. An outline of the steps:
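Log-phase cells seeded at 1000 cells/well, grown 24 h, then exposed to compound (final 20 μM top concentration) for 72 h. Viability by sulphorhodamine B staining, % inhibition relative to DMSO control. IC50 from 8-point sigmoidal variable-slope fit.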

For `O=C(NO)c1cnc(N2CC3C(C2)C3N(Cc2ccc3ccccc3c2)C(=O)CCc2cccnc2)nc1` (stereo not shown) [Example 61, N-Hydroxy 2-{6-[naphthalen-2-ylmethyl-(3-pyridin-3-yl-propionyl)amino]-3-aza-bicyclo[3.1.0]hex-3-yl}pyrimidine-5-carboxamide], the IC50 was 331 to 3300 nM in assay [1], less than 100 nM in assay [2], less than 330 nM in assay [3] and 331 to 3300 nM in assay [4].

`O=C(NO)c1cnc(N2CC3C(C2)C3N2CCOCC2)nc1` (stereo not shown) [Example 62, N-Hydroxy 2-(6-morpholin-4-yl-3-azabicyclo[3.1.0]hex-3-yl)pyrimidine-5-carboxamide]: the IC50 was greater than 3300 nM in assay [1], 101 to 1000 nM in assay [2], 331 to 3300 nM in assay [3] and greater than 3300 nM in assay [4].

As to `O=C(NO)c1cnc(N2CC3C(C2)C3N2CCCCC2)nc1` (stereo not shown) [Example 63, N-Hydroxy 2-(6-piperidin-1-yl-3-azabicyclo[3.1.0]hex-3-yl)pyrimidine-5-carboxamide], the IC50 is greater than 3300 nM in assay [1], 101 to 1000 nM in assay [2], 331 to 3300 nM in assay [3] and greater than 3300 nM in assay [4].

On to `O=C(NO)c1cnc(N2CC3C(C2)C3N2Cc3ccccc3C2)nc1` (stereo not shown) [Example 64, N-Hydroxy 2-[6-(1,3-dihydro-2H-isoindol-2-yl)-3-azabicyclo[3.1.0]hex-3-yl]pyrimidine-5-carboxamide], for which the IC50 was 331 to 3300 nM in assay [1], less than 100 nM in assay [2], less than 330 nM in assay [3] and 331 to 3300 nM in assay [4].

With `O=C(NO)c1cnc(N2CC3C(C2)C3N2Cc3ccccc3CC2=O)nc1` (stereo not shown) [Example 65, N-Hydroxy 2-[6-(3-oxo-3,4-dihydroisoquinolin-2(1H)-yl)-3-azabicyclo[3.1.0]hex-3-yl]pyrimidine-5-carboxamide], the IC50 in assay [1] was 331 to 3300 nM; in assay [2], less than 100 nM; in assay [3] it was 331 to 3300 nM; in assay [4], 331 to 3300 nM.

As for `O=C(NO)c1cnc(N2CC3C(C2)C3N2CCc3ccccc3C2)nc1` (stereo not shown) [Example 66, N-Hydroxy 2-[6-(3,4-dihydroisoquinolin-2(1H)-yl)-3-azabicyclo[3.1.0]hex-3-yl]pyrimidine-5-carboxamide], the IC50 in assay [1] was 331 to 3300 nM; in assay [2] it was less than 100 nM; in assay [3] it was 331 to 3300 nM; in assay [4], 331 to 3300 nM.

In the case of `O=C(NO)c1cnc(N2CC3C(C2)C3Nc2ccc3ccccc3n2)nc1` (stereo not shown) [Example 67, N-Hydroxy 2-[6-(quinolin-2-ylamino)-3-azabicyclo[3.1.0]hex-3-yl]pyrimidine-5-carboxamide], the IC50 in assay [1] was 331 to 3300 nM; in assay [2] it was less than 100 nM; in assay [3], less than 330 nM; in assay [4], 331 to 3300 nM.

Turning to `O=C(NO)c1cnc(N2CC3C(C2)C3Nc2nccc3ccccc23)nc1` (stereo not shown) [Example 68, N-Hydroxy 2-[6-(isoquinolin-1-ylamino)-3-azabicyclo[3.1.0]hex-3-yl]pyrimidine-5-carboxamide], the IC50 was less than 330 nM in assay [1], less than 100 nM in assay [2], less than 330 nM in assay [3] and less than 330 nM in assay [4].

As for `O=C(NO)c1cnc(NC2C3CN(S(=O)(=O)c4ccc5ccccc5c4)CC32)nc1` (stereo not shown) [Example 69, N-Hydroxy 2-{[3-(2-naphthylsulfonyl)-3-azabicyclo[3.1.0]hex-6-yl]amino}pyrimidine-5-carboxamide], the IC50 was greater than 3300 nM in assay [1], less than 100 nM in assay [2], 331 to 3300 nM in assay [3] and greater than 3300 nM in assay [4].

As to `O=C(NO)c1cnc(N2CC(NS(=O)(=O)c3ccc4ccccc4c3)C2)nc1` [Example 70, N-Hydroxy 2-{3-[(2-naphthylsulfonyl)amino]azetidin-1-yl}pyrimidine-5-carboxamide], the IC50 in assay [1] is greater than 3300 nM; in assay [2], less than 100 nM; in assay [3], 331 to 3300 nM; in assay [4] it was greater than 3300 nM.

With `O=C(NO)c1cnc(N2CC3C(CNCc4ccc5ccccc5c4)C3C2)nc1` (stereo not shown) [Example 71, N-Hydroxy 2-{6-[(naphthalen-2-ylmethylamino)methyl]-3-azabicyclo[3.1.0]hex-3-yl}pyrimidine-5-carboxamide], the IC50 in assay [1] was 331 to 3300 nM; in assay [2], less than 100 nM; in assay [3], less than 330 nM; in assay [4] it was 331 to 3300 nM.

With `O=C(NO)c1cnc(N2CC3C(CNCc4ccccc4)C3C2)nc1` (stereo not shown) [Example 72, N-Hydroxy 2-{6-[(benzylamino)methyl]-3-azabicyclo[3.1.0]hex-3-yl}pyrimidine-5-carboxamide], the IC50 in assay [1] was 331 to 3300 nM; in assay [2] it was less than 100 nM; in assay [3], less than 330 nM; in assay [4], 331 to 3300 nM.

`O=C(NO)c1cnc(N2CC3C(CNCc4ccc(Cl)cc4)C3C2)nc1` (stereo not shown) [Example 73, N-Hydroxy 2-(6-{[(4-chlorobenzyl)amino]methyl}-3-azabicyclo[3.1.0]hex-3-yl)pyrimidine-5-carboxamide]: the IC50 in assay [1] was 331 to 3300 nM; in assay [2] it was less than 100 nM; in assay [3], less than 330 nM; in assay [4] it was 331 to 3300 nM.

In the case of `O=C(NO)c1cnc(N2CC3C(CNCc4ccc5ccccc5n4)C3C2)nc1` (stereo not shown) [Example 74, N-Hydroxy 2-(6-{[(quinolin-2-ylmethyl)amino]methyl}-3-azabicyclo[3.1.0]hex-3-yl)pyrimidine-5-carboxamide], the IC50 in assay [1] was 331 to 3300 nM; in assay [2] it was less than 100 nM; in assay [3] it was less than 330 nM; in assay [4], 331 to 3300 nM.

`O=C(NO)c1cnc(N2CC3C(CNCc4ccc5cc(F)ccc5n4)C3C2)nc1` (stereo not shown) [Example 75, N-Hydroxy 2-(6-{[(6-fluoroquinolin-2-ylmethyl)amino]methyl}-3-aza-bicyclo[3.1.0]hex-3-yl)pyrimidine-5-carboxamide]: the IC50 was 331 to 3300 nM in assay [1], 101 to 1000 nM in assay [2], 331 to 3300 nM in assay [3] and 331 to 3300 nM in assay [4].

`O=C(NO)c1cnc(N2CC3CN(S(=O)(=O)c4ccc5ccccc5c4)CC3C2)nc1` (stereo not shown) [Example 76, N-Hydroxy 2-[5-(naphthalene-2-sulfonyl)hexahydro-pyrrolo[3,4-c]pyrrol-2(1H)-yl]pyrimidine-5-carboxamide]: the IC50 was 331 to 3300 nM in assay [1], less than 100 nM in assay [2], less than 330 nM in assay [3] and 331 to 3300 nM in assay [4].

`O=C(NO)c1cnc(N2CC3CN(C(=O)c4ccc5ccccc5c4)CC3C2)nc1` (stereo not shown) [Example 77, N-Hydroxy 2-[5-(naphthalene-2-carbonyl)hexahydropyrrolo[3,4-c]pyrrol-2(1H)-yl]pyrimidine-5-carboxamide]: the IC50 was 331 to 3300 nM in assay [1], less than 100 nM in assay [2], less than 330 nM in assay [3] and less than 330 nM in assay [4].

Regarding `O=C(NO)c1cnc(N2CC3CN(C(=O)CCCOc4ccccc4)CC3C2)nc1` (stereo not shown) [Example 78, N-Hydroxy 2-[5-(4-phenoxybutyryl)hexahydropyrrolo[3,4-c]pyrrol-2(1H)-yl]pyrimidine-5-carboxamide], the IC50 was 331 to 3300 nM in assay [1], less than 100 nM in assay [2], 331 to 3300 nM in assay [3] and greater than 3300 nM in assay [4].

With `O=C(NO)c1cnc(N2CC3CN(Cc4ccc5ccccc5c4)CC3C2)nc1` (stereo not shown) [Example 79, N-Hydroxy 2-(5-naphthalen-2-ylmethylhexahydropyrrolo[3,4-c]pyrrol-2(1H)-yl)pyrimidine-5-carboxamide], the IC50 in assay [1] was less than 330 nM; in assay [2], less than 100 nM; in assay [3], less than 330 nM; in assay [4] it was less than 330 nM.
